Assay results: patent US20260364080A1, “PYRAZOLO-PYRIMIDINONE COMPOUNDS FOR USE IN METHODS OF INHIBITING WEE1 A KINASE” (Acrivon Therapeutics, Inc., priority 2023, published 2026)
Read-outs that look alike come from different tables or passages of the source.

Columns and labels:
[1] = target: T1, Wee1A kinase (CDK1 Tyr15 phosphorylation in ACHN renal cell carcinoma cells) (Homo sapiens, UniProt P30291); assay: High-content imaging of pCdk1 Y15, Wee1A kinase target engagement in ACHN cells; assay type: cell-based
T1 construct: pCDK1 Tyr15 immunofluorescence read-out
T1 sequence (P30291 whole entry): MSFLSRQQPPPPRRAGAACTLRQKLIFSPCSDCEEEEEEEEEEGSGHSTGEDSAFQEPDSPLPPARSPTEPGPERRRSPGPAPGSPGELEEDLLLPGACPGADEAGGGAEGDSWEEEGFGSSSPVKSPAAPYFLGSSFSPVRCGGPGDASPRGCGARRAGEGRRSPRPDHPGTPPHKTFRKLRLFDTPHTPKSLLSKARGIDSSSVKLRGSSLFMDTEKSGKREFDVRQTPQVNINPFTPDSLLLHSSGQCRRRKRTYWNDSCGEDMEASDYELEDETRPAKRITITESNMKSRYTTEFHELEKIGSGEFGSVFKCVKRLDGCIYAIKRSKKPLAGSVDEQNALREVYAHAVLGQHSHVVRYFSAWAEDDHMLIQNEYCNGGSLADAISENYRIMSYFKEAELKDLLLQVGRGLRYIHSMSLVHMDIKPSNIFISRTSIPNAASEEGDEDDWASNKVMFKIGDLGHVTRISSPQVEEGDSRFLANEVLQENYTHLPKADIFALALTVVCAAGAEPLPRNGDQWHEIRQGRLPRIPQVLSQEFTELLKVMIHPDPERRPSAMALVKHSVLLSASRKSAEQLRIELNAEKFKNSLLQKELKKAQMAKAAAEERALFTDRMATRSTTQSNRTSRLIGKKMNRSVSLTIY
How it was run: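 EC50 values come from the per-well fraction of cells with nuclear pCdk1 Y15 staining, normalised to DMSO control, by automated immunofluorescence imaging. Cells were ACHN renal carcinoma, treated 4 h with compound at 7–5,000 nM or 0.3–200 nM.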

[2] = target: T2, recombinant human Wee1A kinase (Homo sapiens, UniProt P30291); assay: Wee1A kinase binding assay (LanthaScreen Eu time-resolved FRET)
T2 construct: full length Wee1 kinase was expressed by baculovirus in insect cells; purchased Invitrogen PV3817; host or cells: insect cells (baculovirus)
T2 sequence (P30291 whole entry): as above
How it was run: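 Full-length, baculovirus-expressed GST-tagged Wee1A (5 nM) was mixed with 2 nM Eu-anti-GST antibody, 30 nM kinase tracer 178 and compound (1% DMSO). Buffer was 50 mM HEPES pH 7.5, 10 mM MgCl2, 1 mM EGTA, 0.01% Brij-35, incubated 60 min at room temperature. TR-FRET 665/615 nm emission ratios from duplicates were curve-fitted.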

[3] = target: T3, Myt1 kinase (recombinant PMYT-1) (Homo sapiens, UniProt Q99640); assay: Myt1 kinase binding assay (LanthaScreen Eu Kinase Binding Assay); settings: 3 nM tracer 178, 2.5 nM PMYT-1, 1 nM Eu-labeled antibody; read-out: Myt1 kinase Binding IC50
T3 construct: full length PMYT-1 was expressed by baculovirus in insect cells; purchased Invitrogen A30984; host or cells: insect cells (baculovirus)
T3 sequence (Q99640 1-499): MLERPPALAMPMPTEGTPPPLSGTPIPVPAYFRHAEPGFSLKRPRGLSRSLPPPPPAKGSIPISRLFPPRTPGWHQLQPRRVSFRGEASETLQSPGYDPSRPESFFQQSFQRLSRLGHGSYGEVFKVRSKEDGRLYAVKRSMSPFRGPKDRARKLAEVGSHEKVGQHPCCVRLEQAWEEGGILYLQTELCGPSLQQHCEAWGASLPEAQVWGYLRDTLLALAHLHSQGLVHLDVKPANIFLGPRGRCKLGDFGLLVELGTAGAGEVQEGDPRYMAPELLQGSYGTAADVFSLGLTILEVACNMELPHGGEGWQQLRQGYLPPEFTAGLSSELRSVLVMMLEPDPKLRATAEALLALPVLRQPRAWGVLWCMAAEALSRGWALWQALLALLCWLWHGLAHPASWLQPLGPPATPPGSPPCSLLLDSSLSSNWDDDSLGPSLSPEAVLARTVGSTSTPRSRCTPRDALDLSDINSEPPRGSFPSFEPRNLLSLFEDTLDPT
How it was run: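 Compound binding to Myt1 kinase was assessed using the LanthaScreen Eu Kinase Binding Assay. This europium-based binding format was applied to quantify how strongly each compound bound to the Myt1 enzyme, and the binding affinity was reported for each compound as an IC50 value.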

ACHN cells = assay: Cell Titer Glo viability assay, ACHN cells; assay type: cell-based; settings: 144 h, absolute EC50
Experimental: Each of an ACHN renal cell carcinoma cell line (ATCC) and a DAOY medulloblastoma cell line, and an A427 lung cancer line were cultured in Minimum Essential Medium Eagle supplemented with 10% fetal calf serum (Sigma), 1% Penicillin-Streptomycin and 10 mM HEPES buffer (HyClone). Cell cultures were kept in a humidified incubator at 37 °C and 5% CO2. Cells were routinely tested for Mycoplasma contamination.
ACHN cells, DAOY cells, or A427 cells were seeded at a density of 400, 250, or 500 cells per well respectively, in tissue culture treated 384 well plates (Corning Costar). After overnight incubation, cells were treated with drugs at concentrations ranging from 17 to 10 000 nM. Viability compared to untreated control was assessed at 144 h using Cell Titer Glo assay 2.0 (Promega). […] “NT” means the compounds was not tested in the indicated cells.

[4] = 4 h treatment, nuclear positivity for pCdk1 Y15 vs DMSO control, read-out: CDK1 Tyr15 Phosphorylation EC50
[5] = 30 nM tracer 178, 5 nM Wee1A kinase, 2 nM Eu-labeled antibody, 60 minutes at room temperature, read-out: Wee1A kinase Binding IC50

SMILES | EC50 [1, 4] | IC50 [2, 5] | IC50 [3] | EC50 (ACHN cells; Homo sapiens) | EC50 (ACHN cells) | EC50 ([1]; read-out: CDK1 Tyr15 Phosphorylation EC50, 4 h treatment, nuclear positivity for pCdk1 Y15 vs DMSO control) | IC50 [2]
C=CCn1c(=O)c2cnc(Nc3ccc4c(cnn4C)c3)nc2n1-c1cccc(N[C@@H]2CCNC2)n1 [Compound 102, 1-{6-[(R)-3-pyrrolidinylamino]-2-pyridyl}-2-allyl-6-(1-methyl-1H-indazol-5-ylamino)-1,2-dihydro-3H-1,2,5,7-tetraazainden-3-one] | > 1 µM | < 0.01 µM | 0.02 to 0.1 µM | > 1 µM | – | – | –
C=CCn1c(=O)c2cnc(Nc3ccc4ccoc4c3)nc2n1-c1cccc(OC2CCN(C)CC2)n1 [Compound 195] | < 0.1 µM | – | 0.1 to 0.5 µM | – | ≤ 0.1 µM | – | –
CCn1c(=O)c2cnc(Nc3ccc4c(cnn4C)c3)nc2n1-c1cccc(N(C)C2CCN(C)CC2)n1 [Compound 287, 1-{6-[N-methyl(1-methyl-4-piperidyl)amino]-2-pyridyl}-2-ethyl-6-(1-methyl-1H-indazol-5-ylamino)-1,2-dihydro-3H-1,2,5,7-tetraazainden-3-one] | – | – | – | 0.1 to 0.5 µM | – | < 0.1 µM | < 0.01 µM
C=CCn1c(=O)c2cnc(Nc3ccc4c(cnn4C)c3)nc2n1-c1cccc(O[C@@H]2CCCN(C)C2)n1 [Compound 331, 6-[(1-methyl-1H-indazol-5-yl)amino]-1-(6-{[(3R)-1-methylpiperidin-3-yl]oxy}pyridin-2-yl)-2-(prop-2-en-1-yl)-1H,2H,3H-pyrazolo[3,4-d]pyrimidin-3-one] | < 0.1 µM | < 0.01 µM | – | 0.1 to 0.5 µM | – | – | –
C=CCn1c(=O)c2cnc(Nc3cccc(-n4cccn4)c3)nc2n1-c1cccc(OC2CCN(C)CC2)n1 [Compound 364, 2-allyl-1-[6-(1-methyl-4-piperidyloxy)-2-pyridyl]-6-[m-(1-pyrazolyl)phenylamino]-1,2-dihydro-3H-1,2,5,7-tetraazainden-3-one] | < 0.1 µM | < 0.01 µM | 0.02 to 0.1 µM | – | – | – | –
C=CCn1c(=O)c2cnc(Nc3cccc(-n4ccnc4)c3)nc2n1-c1cccc(OC2CCN(C)CC2)n1 [Compound 365, 2-allyl-6-[m-(1-imidazolyl)phenylamino]-1-[6-(1-methyl-4-piperidyloxy)-2-pyridyl]-1,2-dihydro-3H-1,2,5,7-tetraazainden-3-one] | < 0.1 µM | < 0.01 µM | 0.02 to 0.1 µM | – | – | – | –
CCn1c(=O)c2cnc(Nc3cccc(-c4cncnc4)c3)nc2n1-c1cccc(OC2CCNCC2)n1 [Compound 366, 2-ethyl-1-[6-(4-piperidyloxy)-2-pyridyl]-6-[m-(5-pyrimidinyl)phenylamino]-1,2-dihydro-3H-1,2,5,7-tetraazainden-3-one] | 0.5 to 1 µM | < 0.01 µM | 0.1 to 0.5 µM | – | – | – | –
CCn1c(=O)c2cnc(Nc3cccc(-c4cncnc4)c3)nc2n1-c1cccc(OC2CCN(C)CC2)n1 [Compound 367, 2-ethyl-1-[6-(1-methyl-4-piperidyloxy)-2-pyridyl]-6-[m-(5-pyrimidinyl)phenylamino]-1,2-dihydro-3H-1,2,5,7-tetraazainden-3-one] | < 0.1 µM | < 0.01 µM | 0.1 to 0.5 µM | – | – | – | –
C=CCn1c(=O)c2cnc(Nc3cccc(-c4cccnc4)c3)nc2n1-c1cccc(OC2CCN(C)CC2)n1 [Compound 368, 2-allyl-1-[6-(1-methyl-4-piperidyloxy)-2-pyridyl]-6-[m-(3-pyridyl)phenylamino]-1,2-dihydro-3H-1,2,5,7-tetraazainden-3-one] | 0.1 to 0.5 µM | < 0.01 µM | 0.02 to 0.1 µM | – | – | – | –
C=CCn1c(=O)c2cnc(Nc3ccc(OCC(F)(F)F)cc3)nc2n1-c1ccnc(OC2CCN(C3COC3)CC2)n1 [Compound 371, 2-allyl-1-(2-((1-(oxetan-3-yl)piperidin-4-yl)oxy)pyrimidin-4-yl)-6-((4-(2,2,2-trifluoroethoxy)phenyl)amino)-1,2-dihydro-3H-pyrazolo[3,4-d]pyrimidin-3-one] | < 0.1 µM | < 0.01 µM | 0.1 to 0.5 µM | – | – | – | –
C=CCn1c(=O)c2cnc(Nc3ccc4c(cnn4C(C)C)c3)nc2n1-c1ccnc(OC2CCNCC2)n1 [Compound 375, 2-allyl-6-((1-isopropyl-1H-indazol-5-yl)amino)-1-(2-(piperidin-4-yloxy)pyrimidin-4-yl)-1,2-dihydro-3H-pyrazolo[3,4-d]pyrimidin-3-one] | < 0.1 µM | < 0.01 µM | 0.02 to 0.1 µM | – | – | – | –
C=CCn1c(=O)c2cnc(Nc3ccc4c(cnn4C4CC4)c3)nc2n1-c1cccc(OC2CCNCC2)n1 [Compound 376, 2-allyl-6-((1-cyclopropyl-1H-indazol-5-yl)amino)-1-(6-(piperidin-4-yloxy)pyridin-2-yl)-1,2-dihydro-3H-pyrazolo[3,4-d]pyrimidin-3-one] | < 0.1 µM | < 0.01 µM | < 0.02 µM | – | – | – | –
C=CCn1c(=O)c2cnc(Nc3ccc(OCCF)cc3)nc2n1-c1ccnc(OC2CCNCC2)n1 [Compound 391, 2-allyl-6-((4-(2-fluoroethoxy)phenyl)amino)-1-(2-(piperidin-4-yloxy)pyrimidin-4-yl)-1,2-dihydro-3H-pyrazolo[3,4-d]pyrimidin-3-one] | 0.1 to 0.5 µM | < 0.01 µM | 0.02 to 0.1 µM | – | – | – | –
C=CCn1c(=O)c2cnc(Nc3ccc4cn(C)nc4c3)nc2n1-c1cccc(OC2CCNCC2)n1 [Compound 393, 2-allyl-6-((2-methyl-2H-indazol-6-yl)amino)-1-(6-(piperidin-4-yloxy)pyridin-2-yl)-1,2-dihydro-3H-pyrazolo[3,4-d]pyrimidin-3-one] | 0.1 to 0.5 µM | < 0.01 µM | 0.02 to 0.1 µM | – | – | – | –
C=CCn1c(=O)c2cnc(Nc3ccc4c(cnn4C)c3)nc2n1-c1cccc(OC2CCNC(C)C2)n1 [Compound 404, rel-2-allyl-6-((1-methyl-1H-indazol-5-yl)amino)-1-(6-(((2R,4R)-2-methylpiperidin-4-yl)oxy)pyridin-2-yl)-1,2-dihydro-3H-pyrazolo[3,4-d]pyrimidin-3-one] | < 0.1 µM | < 0.01 µM | 0.02 to 0.1 µM | – | – | – | –
C=CCn1c(=O)c2cnc(Nc3cnc4c(cnn4C(C)C)c3)nc2n1-c1cccc(OC2CCNCC2)n1 [Compound 407, 2-allyl-6-((1-isopropyl-1H-pyrazolo[3,4-b]pyridin-5-yl)amino)-1-(6-(piperidin-4-yloxy)pyridin-2-yl)-1,2-dihydro-3H-pyrazolo[3,4-d]pyrimidin-3-one] | < 0.1 µM | < 0.01 µM | < 0.02 µM | – | – | – | –
C=CCn1c(=O)c2cnc(Nc3ccc4c(c3)nnn4C(C)C)nc2n1-c1cccc(OC2CCNCC2)n1 [Compound 408, 2-allyl-6-((1-isopropyl-1H-benzo[d][1,2,3]triazol-5-yl)amino)-1-(6-(piperidin-4-yloxy)pyridin-2-yl)-1,2-dihydro-3H-pyrazolo[3,4-d]pyrimidin-3-one] | < 0.1 µM | < 0.01 µM | < 0.02 µM | – | – | – | –
C=CCn1c(=O)c2cnc(Nc3ccc4c(c3)nnn4C(C)C)nc2n1-c1cccc(OC2CCN(C)CC2)n1 [Compound 409, 2-allyl-6-((1-isopropyl-1H-benzo[d][1,2,3]triazol-5-yl)amino)-1-(6-((1-methylpiperidin-4-yl)oxy)pyridin-2-yl)-1,2-dihydro-3H-pyrazolo[3,4-d]pyrimidin-3-one] | < 0.1 µM | < 0.01 µM | < 0.02 µM | – | – | – | –
